Assay results reported in ChEMBL document CHEMBL1201862, “PubChem BioAssay data set” (2004).
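Method: 48-hour compound exposure of cells in 96-well plates, five concentrations, linear interpolation of endpoints. GI50 marks 50% less growth.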 Activity calls are given as the source filed them. Rule as the data show it: active = GI50 up to about 1.1 µM and inactive = higher.

What was measured:
Test in all cases: growth of human tumour cells (NCI), 48 h
[1] = tested on: SW-620
[2] = tested on: DU-145
[3] = tested on: HOP-62
[4] = tested on: A498
[5] = tested on: SK-MEL-5
[6] = tested on: UO-31
[7] = tested on: MCF7
[8] = tested on: OVCAR-3
[9] = tested on: MDA-MB-231
[10] = tested on: HL-60
[11] = tested on: HCC 2998
[12] = tested on: IGROV-1
[13] = tested on: SF-295
[14] = tested on: SR
[15] = tested on: EKVX
[16] = tested on: HCT-15
[17] = tested on: OVCAR-5
[18] = tested on: TK-10
[19] = tested on: CCRF-CEM
[20] = tested on: HCT-116
[21] = tested on: T47D
[22] = tested on: CAKI-1
[23] = tested on: NCI-H226
[24] = tested on: SF-268
[25] = tested on: HOP-92
[26] = tested on: U-251
[27] = tested on: COLO 205
[28] = tested on: A549
[29] = tested on: SN12C
[30] = tested on: Malme-3M
[31] = tested on: SNB-19
[32] = tested on: NCI-H23
[33] = tested on: SNB-75
[34] = tested on: NCI-H460
[35] = tested on: SK-MEL-2
[36] = tested on: HT-29
[37] = tested on: UACC-62
[38] = tested on: NCI/ADR-RES
[39] = tested on: LOX IMVI
[40] = tested on: UACC-257
[41] = tested on: SF-539
[42] = tested on: BT-549
[43] = tested on: MOLT-4
[44] = tested on: PC-3
[45] = tested on: OVCAR-8
[46] = tested on: SK-OV-3
[47] = tested on: MDA-N
[48] = tested on: Hs-578T
[49] = tested on: RXF 393
[50] = tested on: M14
[51] = tested on: MDA-MB-435
[52] = tested on: SK-MEL-28
[53] = tested on: KM12
[54] = tested on: K562
[55] = tested on: ACHN
[56] = tested on: 786-0

In the case of `Cc1ccc(C(=O)C2CC3(CCC2(O)c2ccc(C)cc2)CC(=O)Nc2ccccc2C3=O)cc1` (stereo not drawn), the GI50 [1] is reported as > 100 µM (inactive), the GI50 [2] is reported as > 100 µM (inactive) and the GI50 [3] is reported as 99.3 µM (inactive). For the same compound, the GI50 [4] was > 100 µM (inactive), the GI50 [5] was 6.89 µM (inactive) and the GI50 [6] was > 100 µM (inactive). For the same compound, the GI50 [7] was 7.6 µM (inactive), the GI50 [8] was > 100 µM (inactive) and the GI50 [9] was > 100 µM (inactive). The GI50 [10] was 10.5 µM (inactive), the GI50 [11] was > 100 µM (inactive) and the GI50 [12] was > 100 µM (inactive). The GI50 [13] was 28.4 µM (inactive), the GI50 [14] was > 100 µM (inactive) and the GI50 [15] was > 100 µM (inactive). The GI50 [16] was over 100 µM, the GI50 [17] was > 100 µM (inactive) and the GI50 [18] was > 100 µM (inactive). For the same compound, the GI50 [19] was 5.66 µM (inactive), the GI50 [20] was 62.7 µM (inactive) and the GI50 [21] was 8.57 µM (inactive). For the same compound, the GI50 [22] was > 100 µM (inactive), the GI50 [23] was > 100 µM (inactive) and the GI50 [24] was > 100 µM (inactive). For the same compound, the GI50 [25] was 19.4 µM (inactive), the GI50 [26] was 8.39 µM (inactive) and the GI50 [27] was > 100 µM (inactive). The GI50 [28] was > 100 µM (inactive), the GI50 [29] was > 100 µM (inactive) and the GI50 [30] was > 100 µM (inactive). The GI50 [31] was 51.6 µM (inactive), the GI50 [32] was > 100 µM (inactive) and the GI50 [33] was 13.5 µM (inactive). For the same compound, the GI50 [34] was 40 µM (inactive), the GI50 [35] was > 100 µM (inactive) and the GI50 [36] was > 100 µM (inactive). The GI50 [37] was > 100 µM (inactive), the GI50 [38] was > 100 µM (inactive) and the GI50 [39] was > 100 µM (inactive). The GI50 [40] was > 100 µM (inactive), the GI50 [41] was > 100 µM (inactive) and the GI50 [42] was > 100 µM (inactive). For the same compound, the GI50 [43] was 4.91 µM (inactive), the GI50 [44] was 7.05 µM (inactive) and the GI50 [45] was > 100 µM (inactive). The GI50 [46] was > 100 µM (inactive), the GI50 [47] was > 100 µM (inactive) and the GI50 [48] was 41.1 µM (inactive). For the same compound, the GI50 [49] was 16.1 µM (inactive), the GI50 [50] was 46.5 µM (inactive) and the GI50 [51] was > 100 µM (inactive). For the same compound, the GI50 [52] was > 100 µM (inactive).
For `O=C(c1ccccc1)N1CCC(Nc2cccnc2)O1` (stereo not drawn), the GI50 [1] was > 100 µM (inactive), the GI50 [2] was > 100 µM (inactive) and the GI50 [3] was > 100 µM (inactive). For the same compound, the GI50 [4] was > 100 µM (inactive), the GI50 [5] was > 100 µM (inactive) and the GI50 [6] was > 100 µM (inactive). The GI50 [7] was > 100 µM (inactive), the GI50 [8] was > 100 µM (inactive) and the GI50 [9] was > 100 µM (inactive). For the same compound, the GI50 [10] was > 100 µM (inactive), the GI50 [11] was 50.8 µM (inactive) and the GI50 [12] was > 100 µM (inactive). The GI50 [13] was > 100 µM (inactive), the GI50 [14] was > 100 µM (inactive) and the GI50 [15] was > 100 µM (inactive). The GI50 [53] was > 100 µM (inactive), the GI50 [16] was over 100 µM and the GI50 [17] was > 100 µM (inactive). For the same compound, the GI50 [18] was > 100 µM (inactive), the GI50 [19] was > 100 µM (inactive) and the GI50 [20] was > 100 µM (inactive). The GI50 [21] was 92.9 µM (inactive), the GI50 [54] was > 100 µM (inactive) and the GI50 [55] was > 100 µM (inactive). For the same compound, the GI50 [23] was > 100 µM (inactive), the GI50 [24] was > 100 µM (inactive) and the GI50 [25] was > 100 µM (inactive). The GI50 [26] was > 100 µM (inactive), the GI50 [28] was > 100 µM (inactive) and the GI50 [29] was > 100 µM (inactive). The GI50 [30] was 60.3 µM (inactive), the GI50 [31] was > 100 µM (inactive) and the GI50 [32] was > 100 µM (inactive). For the same compound, the GI50 [34] was > 100 µM (inactive), the GI50 [35] was > 100 µM (inactive) and the GI50 [36] was > 100 µM (inactive). The GI50 [37] was > 100 µM (inactive), the GI50 [38] was > 100 µM (inactive) and the GI50 [41] was > 100 µM (inactive). For the same compound, the GI50 [42] was > 100 µM (inactive), the GI50 [43] was > 100 µM (inactive) and the GI50 [44] was > 100 µM (inactive). The GI50 [45] was > 100 µM (inactive), the GI50 [46] was > 100 µM (inactive) and the GI50 [47] was > 100 µM (inactive). For the same compound, the GI50 [56] was > 100 µM (inactive), the GI50 [48] was 7.64 µM (inactive) and the GI50 [49] was > 100 µM (inactive). The GI50 [50] was > 100 µM (inactive), the GI50 [51] was > 100 µM (inactive) and the GI50 [52] was > 100 µM (inactive).
